Source: patent publication US9758401B2, “Digestion of biosolids in wastewater” (BCR ENVIRONMENTAL CORPORATION, priority 2009, dated 2017)

What was measured:
anaerobic digester = experiment: Methane production in anaerobic digestion of chlorine dioxide pretreated WAS; details: versus non-pretreated WAS, measured
Method: Treatment of non-digested wastewater sludge with chlorine dioxide to solubilized the sludge and make nutrients bio-available and then feeding this material into an established anaerobic digester once the chlorine dioxide residual has been reduced improves gas (methane) production in an anaerobic digester. A generally accepted estimate for methane production at 35° C. is 0.25 kg methane per kg COD consumed. One kmol of methane is equivalent with a mass of 16 kg. Per definition, the COD equivalent of 1 kmol of methane is the mass of the amount of oxygen required for complete oxidation according to the formula: CH4+2O2→CO2+2H2O The mass of the 2O2 is 2 kmol of oxygen or 64 kg. Thus 64 kg Oxygen Demand is equivalent with 16 kg of methane, or 1 kg of oxygen demand (COD) is equivalent with 16/64=0.25 kg methane.
This increase in soluble COD represents 10-11% of the total COD concentration of the sludge, and represents a 2000% increase in soluble COD. The inventors believe that the higher the s-COD the higher capacity for methane production. The resulting increase in methane production as a result of this enhancement of anaerobic digestion has been measured as a greater than 50% increase utilizing this method, and is expected to be in the range of 100% or more over non-pretreated WAS. […]

[1] = system: Waste activated sludge (WAS); experiment: Waste activated sludge solubilization by chlorine dioxide in digesters (soluble COD, NH4, PO4, volatile solids)
Method: Waste activated sludge (WAS) was obtained from a local municipal WWTP which removes cBOD only and uses a pure oxygen system. In order to achieve similar experiment conditions and be consistent with the previous pilot experiment, the solids concentration was adjusted to approximately 7 g/L. Three digesters were set up and treated with chlorine dioxide dosages of 100, 150 and 200 mg/L respectively. The digesters were operated for 24 hours. Samples were taken at time intervals of 10 min, 1 h, 6 h, 12 h and 24 h to represent different contact time.
This confirmed that chlorine dioxide contact time is the key factor for WAS solubilization. The increased soluble COD concentration can be expressed as 10-11% of TCOD which is quite significant. It was also observed that soluble COD concentration at contacting time of 6 hr was approximately 55-66% of the soluble COD at time 24 hrs. […] The increase of soluble COD corresponded to the volatile solids destruction of 4-6% with different chlorine dioxide treatment dosage.
This is considered insignificant. The PO4 increase was much higher and equaled 16 to 28.3 mg P/L after 24 h. Higher phosphorus than nitrogen release can be attributed to the chlorine dioxide treatment which breaks down the cell walls resulting in the release of unbound orthophosphate PO4—P. The nitrogen in the cells is in the form of organic nitrogen (amino acids) and enzymes are required to convert organic nitrogen to ammonia nitrogen. The low pH resulting from the chlorine dioxide treatment may have deactivated the enzyme activity, therefore no/insignificant NH4—N increase was detected.

fecal coliform = experiment: Secondary sludge full-scale test: fecal coliform reduction by chlorine dioxide; type: cell-based; details: for Fecal coliform: secondary sludge, 10 minutes contact time
Method: Treatment of non-digested wastewater sludge with chlorine dioxide allows the material to meet Class B pathogen reduction requirements prior to digestion by reducing the fecal coliform concentrations to levels much lower than the Class B standard (<2,000,000 fecal coliform bacteria) with less than 15 minutes contact time. The resulting biosolids cake has no odor.
In this test, chlorine dioxide was generated on-site, and was injected (at varying concentrations) into a 100 gpm sludge flow passing through a 4 inch diameter pipe. The pipe length was sufficient to allow 10 minutes of contact time between the sludge and the chlorine dioxide prior to dewatering the material.

[2] = chlorine dioxide 100-200 mg/L, 24 h

`[O][Cl+][O-]` [chlorine dioxide] was tested, and the “increase in methane production” value (anaerobic digester) was “greater than 50%”, the “soluble COD at contact time 6 hr as share of soluble COD at 24 hrs” value ([1]; chlorine dioxide 100-200 mg/L) was 55-66% and the “increase in soluble COD” value [1, 2] was 2000%. For the same compound, the “increase in soluble COD as share of total COD (TCOD)” value [1, 2] was 10-11%, the volatile solids destruction ([1]; different chlorine dioxide treatment dosage (100-200 mg/L)) was 4-6% and the “fecal coliform concentrations after treatment (Class B standard)” value (fecal coliform; non-digested wastewater sludge, less than 15 minutes contact time) was < 2,000,000 fecal coliform bacteria. For the same compound, the Fecal coliform (fecal coliform; ClO2 dose rate 64 mg/L) was 1,800 MPN/g, the Fecal coliform (fecal coliform; ClO2 dose rate 80 mg/L) was “BDL” and the Fecal coliform (fecal coliform; ClO2 dose rate 96 mg/L) was “BDL”. For the same compound, the Fecal coliform (fecal coliform; ClO2 dose rate 128 mg/L) was “BDL” and the Fecal coliform (fecal coliform; ClO2 dose rate 160 mg/L) was “BDL*”.
